{"source": "patent US8569481B2", "about": "“Capture compounds, collections thereof and methods for analyzing the proteome and complex compositions” (Pharmaceuticals, Inc., priority 2001, dated 2013)", "target": "Cytochrome C (Bos taurus, UniProt P62894)", "sequence (P62894 whole entry)": "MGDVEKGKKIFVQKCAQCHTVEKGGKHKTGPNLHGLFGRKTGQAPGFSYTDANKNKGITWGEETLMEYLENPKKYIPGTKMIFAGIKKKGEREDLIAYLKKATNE", "experiment": "Time course reaction of cytochrome C with a non-specific capture compound, analyzed by MALDI-TOF mass spectrometry", "format": "binding", "source_text": "Four different capture compounds (designated HKC 1341 (2,5-dioxopyrrolidin-1-yl acetate), HKC 1343 (2,5-dioxopyrrolidin-1-yl 4-(hydroxybis(4-methoxyphenyl)methyl)benzoate), HKC 1349 (1-(4-((3-(2-hydroxyethoxy)phenyl)(phenyl)(3-phenylpropoxy)methyl)benzoyl)-1H-pyrrole-2,5-dione), and HKC 1365 (3-((4-((2,5-dioxopyrrolidin-1-yloxy)carbonyl)phenyl)diphenylmethoxy)propane-1,2-diyl dipalmitate)) were reacted individually with Cytochrome C (accession number: P00006, FIG. 20c). The capture experiments were analyzed using MALDI-TOF Mass Spectrometry. Binding was performed in 20 μL sample volumes with 5 μM Cytochrome C concentrations in 25 mM HEPES buffer solution, pH 7.0. The trityl-based capture compounds were added to the protein solution at a 10 μM concentration. […] The reaction was quenched using 1 μL of a 100 mM TRIZMA base solution. The capture compound-protein binding mixture was prepared for mass spectrometry analysis by mixing a 1 μL aliquot of the binding reaction with 1 μL of a 10 mg/mL sinapinic acid in 30% aqueous acetonitrile. The sample was deposited as a […] spot on the surface of mass target plates and subsequently air-dried before mass spectrometric analyses."}
{"smiles": "CC(=O)ON1C(=O)CCC1=O", "note": "[HKC 1341, 2,5-dioxopyrrolidin-1-yl acetate]", "values": [{"measurement": "modifications of cytochrome C resulting from binding of the capture compound", "setting": "after 30 minutes (middle spectrum, FIG. 20f)", "value": "1-9"}, {"measurement": "modifications of cytochrome C resulting from binding of the capture compound", "setting": "time 0 (top spectrum, FIG. 20f)", "value": "no modification"}]}
